The values that follow come from PubChem BioAssay AID1259408 (Genetic Toxicology Data Bank (GENE-TOX), 2018).

This series has as its system GENE-TOX genotoxicity assays, various organisms and cells. Put plainly: GENE-TOX mutagenicity studies. As to conditions: for call: Assay Type: In vivo carcinogenicity studies.
[1] abbreviates: Species/Cell Type: Bacillus subtilis (H17 vs M45), Assay Type: Rec-assay, spot test, DNA effects (bacterial DNA repair), Assay Code: REW-, Evaluation Type: Evaluation A (Pre-1980).
Where [2] appears, read: Species/Cell Type: Salmonella typhimurium (one or more of the five standard strains: TA98, TA100, TA1535, TA1537, and TA1538), Assay Type: Histidine reverse gene mutation, Ames assay, Assay Code: SALT, Evaluation Type: Evaluation A (Pre-1980).
[3] abbreviates: Species/Cell Type: Salmonella typhimurium (one or more of the five standard strains: TA98, TA100, TA1535, TA1537, and TA1538), Assay Type: Histidine reverse gene mutation, Ames assay, Assay Code: SAL+, Evaluation Type: Evaluation A (Pre-1980).
Where [4] appears, read: Species/Cell Type: Saccharomyces cerevisiae, Assay Type: Mitotic recombination or gene conversion, Assay Code: YEH-, Evaluation Type: Evaluation A (Pre-1980).
[5] abbreviates: Species/Cell Type: Escherichia coli polA (W3119 vs P3478), Assay Type: Rec-assay, DNA effects (bacterial DNA repair), Assay Code: RE1T, Evaluation Type: Evaluation A (Pre-1980).
Where [6] appears, read: Species/Cell Type: Salmonella typhimurium (one or more of the five standard strains: TA98, TA100, TA1535, TA1537, and TA1538), Assay Type: Histidine reverse gene mutation, Ames assay, Assay Code: SAL-, Evaluation Type: Evaluation A (Pre-1980).
Where [7] appears, read: Species/Cell Type: Salmonella typhimurium, Assay Type: Forward and reverse gene mutation, host-mediated assay, Assay Code: HMA-, Evaluation Type: Evaluation A (Pre-1980).
Where [8] appears, read: Species/Cell Type: Chinese hamster lung (V79) cells, Assay Type: Forward gene mutation at the HPRT or ouabain locus, Assay Code: V79+, Evaluation Type: Evaluation A (Pre-1980).
[9] abbreviates: Species/Cell Type: Nonhuman, Assay Code: CCG+L, Evaluation Type: Evaluation A (Pre-1980).

Calls of active or inactive are those of the source. No rule for the calls is given here.

With `COc1cc2c(c3oc(=O)c4c(c13)CCOC4=O)[C@@H]1CCO[C@@H]1O2`, the mutagenic call under setting [1] was “inactive; negative”; the mutagenic call (Species/Cell Type: Chinese hamster lung (V79) cells, Assay Type: Forward gene mutation at the HPRT or ouabain locus, Assay Code: V79-*, Activation: With metabolic activation, Evaluation Type: Evaluation A (Pre-1980)) is “inactive; negative”; the mutagenic call (Species/Cell Type: Human diploid fibroblasts, Assay Type: Unscheduled DNA synthesis (UDS) in vitro, DNA effects, Assay Code: UDH-*, Activation: With metabolic activation, Evaluation Type: Evaluation A (Pre-1980)) is “inactive; negative”; the mutagenic call (Species/Cell Type: Nonhuman, Assay Type: Sister-chromatid exchange (SCE) in vitro, Assay Code: SC2+D*, Activation: With metabolic activation, Dose Response: With dose response, Evaluation Type: Evaluation B (Post-1980)) was “active; positive”; the mutagenic call (Species/Cell Type: Rat primary hepatocytes, Assay Type: Unscheduled DNA synthesis (UDS) in vitro, DNA effects, Assay Code: UDP-, Evaluation Type: Evaluation A (Pre-1980)) is “inactive; negative”; the mutagenic call under setting [2] was “no conclusion”.
For `CCC(=O)Oc1ccc2c(c1)CC[C@@H]1[C@@H]2CC[C@]2(C)[C@@H](OC(=O)CC)CC[C@@H]12`, the mutagenic call (Species/Cell Type: Rat, Sex: Male, Assay Type: Sperm morphology, Assay Code: SPA+, Evaluation Type: Evaluation A (Pre-1980)) is “active; positive”.
Consider `CS/C(C)=N/OC(=O)N(C)N=O`, for which the mutagenic call under setting [3] was “active; positive”.
Take `CCc1ccccc1O`: the mutagenic call is, setting by setting: (Species/Cell Type: Human lymphocytes, Assay Type: Sister-chromatid exchange (SCE) in vitro, Assay Code: SCLT, Evaluation Type: Evaluation B (Post-1980)) “no conclusion”; (Species/Cell Type: Human, Assay Type: Sister-chromatid exchange (SCE) in vitro, Assay Code: SC1T, Evaluation Type: Evaluation B (Post-1980)) “no conclusion”.
In the case of `Clc1cc2oc3cc(Cl)c(Cl)cc3c2cc1Cl`, the mutagenic call (Species/Cell Type: Saccharomyces cerevisiae, Assay Type: Forward gene mutation, Assay Code: YEF-, Evaluation Type: Evaluation A (Pre-1980)) was “inactive; negative”; the mutagenic call (Species/Cell Type: Saccharomyces cerevisiae, Assay Type: Mitotic recombination or gene conversion, Assay Code: YEC-, Evaluation Type: Evaluation A (Pre-1980)) was “inactive; negative”; the mutagenic call under setting [4] is “inactive; negative”.
`CCCCN(CCO)N=O`: the mutagenic call under setting [3] was “active; positive”.
With `Brc1ccccc1`, the mutagenic call is, setting by setting: under setting [5], “no conclusion”; (Species/Cell Type: Mammalian polychromatic erythrocytes, Assay Type: Micronucleus test, chromosome aberrations, Assay Code: MNT+, Evaluation Type: Evaluation B (Post-1980)) “active; positive”; under setting [4], “inactive; negative”; under setting [6], “inactive; negative”; under setting [7], “inactive; negative”; (Species/Cell Type: Syrian hamster embryo (SHE) cells, Assay Type: Cell transformation, clonal assay, Assay Code: CTC-, Evaluation Type: Evaluation A (Pre-1980)) “inactive; negative”.
In the case of `ClC1=C(Cl)[C@]2(Cl)C3C(Cl)C(Cl)CC3[C@@]1(Cl)C2(Cl)Cl` (stereo partly specified), the mutagenic call was “active; positive” under setting [8]; “no conclusion” (Species/Cell Type: Rodents, Sex: Male, Assay Type: Dominant lethal test, Assay Code: DLTT, Evaluation Type: Evaluation A (Pre-1980)); “active; positive” (Species/Cell Type: Zea mays (corn), Assay Type: Gene mutation, Assay Code: ZEM+, Evaluation Type: Evaluation A (Pre-1980)). Also, the call under setting [9] was “active; positive”.
For the molecule `C[C@@H]1[C@H](O)[C@@H](C)/C=C/C=C/C=C/C=C/C=C/C=C/C=C/[C@H](O[C@@H]2O[C@H](C)[C@@H](O)[C@H](N)[C@@H]2O)C[C@@H]2O[C@](O)(C[C@@H](O)C[C@@H](O)[C@H](O)CC[C@@H](O)C[C@@H](O)CC(=O)O[C@H]1C)C[C@H](O)[C@H]2C(=O)O`, the mutagenic call (Species/Cell Type: Aspergillus nidulans, Assay Type: Aneuploidy, chromosome aberrations, Assay Code: ASN+, Evaluation Type: Evaluation A (Pre-1980)) is “active; positive”.
Take `CCCCNC(=O)NS(=O)(=O)c1ccc(N)cc1`: where the note is “Species/Cell Type: Nonhuman, Assay Type: Sister-chromatid exchange (SCE) in vivo, Assay Code: SC3T, Evaluation Type: Evaluation B (Post-1980)”, the mutagenic call was “no conclusion”.
As for `O=[N+]([O-])c1cnc2ccccc2c1`, under “Species/Cell Type: Neurospora crassa, Assay Type: Aneuploidy, chromosome aberrations, Assay Code: NEN-, Evaluation Type: Evaluation A (Pre-1980)”, the mutagenic call was “inactive; negative”.
Take `O=C1CCC(=O)O1`: the mutagenic call (Species/Cell Type: Escherichia coli polA (W3110 vs P3478), Assay Type: Rec-assay, DNA effects (bacterial DNA repair), Assay Code: RE2-, Evaluation Type: Evaluation A (Pre-1980)) is “inactive; negative”; the mutagenic call (Species/Cell Type: Escherichia coli polA (W3119 vs P3478), Assay Type: Rec-assay, DNA effects (bacterial DNA repair), Assay Code: RE1-, Evaluation Type: Evaluation A (Pre-1980)) was “inactive; negative”; the mutagenic call (Species/Cell Type: Mouse lymphoma (L5178Y) cells, Assay Type: Forward gene mutation at the thymidine kinase (TK) locus, chromosome aberrations, Assay Code: L51-, Evaluation Type: Evaluation A (Pre-1980)) is “inactive; negative”; the mutagenic call under setting [4] is “inactive; negative”; the mutagenic call under setting [6] was “inactive; negative”; the mutagenic call under setting [7] is “inactive; negative”. The mutagenic call (Species/Cell Type: Syrian hamster embryo (SHE) cells, Assay Type: Cell transformation, clonal assay, Assay Code: CTC+, Evaluation Type: Evaluation A (Pre-1980)) was “active; positive”. In addition, the call under setting [9] was “active; positive”.
In the case of `COC(=O)Nc1ncc(-c2ccc(Br)cc2)[nH]1`, the mutagenic call (Species/Cell Type: Salmonella typhimurium, Assay Type: Forward and reverse gene mutation, host-mediated assay, Assay Code: HMAT, Evaluation Type: Evaluation A (Pre-1980)) is “no conclusion”.
As for `CC(C)Nc1cccc2c1C(=O)c1ccccc1C2=O`, the mutagenic call (Species/Cell Type: Salmonella typhimurium (one or more of the five standard strains: TA98, TA100, TA1535, TA1537, and TA1538), Assay Type: Histidine reverse gene mutation, Ames assay, Assay Code: SAL+*, Activation: With metabolic activation, Evaluation Type: Evaluation A (Pre-1980)) is “active; positive”.
For the molecule `O=C(O)c1cc(N=Nc2ccc([N+](=O)[O-])cc2)ccc1O`, the mutagenic call under setting [2] is listed as “no conclusion”.
In the case of `COc1cc([C@@H]2c3cc4c(cc3[C@@H](O[C@@H]3O[C@H](CO)[C@@H](O)[C@H](O)[C@H]3O)[C@H]3COC(=O)[C@H]23)OCO4)cc(OC)c1O`, where the note is “Species/Cell Type: Chinese hamster ovary (CHO) cells, Assay Type: Forward gene mutation at the HPRT locus, Assay Code: CHO+, Evaluation Type: Evaluation B (Post-1980)”, the mutagenic call was “active; positive”.
As to `O=C1OC2(c3ccccc31)c1ccc(O)c(Br)c1Oc1c2ccc(O)c1Br`, under setting [2], the mutagenic call is “no conclusion”.
Turning to `COP(=O)(OC)O/C(C)=C/C(=O)N(C)C`, the mutagenic call was “active; positive” (Species/Cell Type: Nonhuman, Assay Type: Sister-chromatid exchange (SCE) in vitro, Assay Code: SC2+D, Dose Response: With dose response, Evaluation Type: Evaluation B (Post-1980)) and “active; positive” (Species/Cell Type: Saccharomyces cerevisiae, Assay Type: Mitotic recombination or gene conversion, Assay Code: YEC+, Evaluation Type: Evaluation A (Pre-1980)).
In the case of `C[C@]12CC[C@@H](O)C[C@@H]1CC[C@@H]1[C@@H]2CC[C@]2(C)C(=O)CC[C@@H]12`, under “Species/Cell Type: Mouse, Sex: Male, Assay Type: Sperm morphology, Assay Code: SPI-, Evaluation Type: Evaluation A (Pre-1980)”, the mutagenic call was “inactive; negative”.
`Cc1cc2ccccc2c2ccc3c(F)cccc3c12`: the mutagenic call under setting [2] is reported as “no conclusion”.
Take `O=C(OOC(=O)c1ccccc1)c1ccccc1`: the mutagenic call under setting [5] is listed as “no conclusion”.
For the molecule `C=C(C)C(=O)/C(=C\C(=O)O)OC`, the mutagenic call is, setting by setting: (Species/Cell Type: Bacillus subtilis (H17 vs M45), Assay Type: Rec-assay, spot test, DNA effects (bacterial DNA repair), Assay Code: REW+, Evaluation Type: Evaluation A (Pre-1980)) “active; positive”; under setting [4], “inactive; negative”; under setting [2], “no conclusion”. Also, the call under setting [9] was “active; positive”.
Turning to `Cc1cc(N=Nc2ccc(C)c(N=Nc3cc(C)c(N)cc3N)c2)c(N)cc1N`, the mutagenic call under setting [1] is “inactive; negative”.
On to `CC[N+](C)(CC)CCC[n+]1c(-c2ccccc2)c2cc(N)ccc2c2ccc(N)cc21`, for which the mutagenic call (Species/Cell Type: Mammalian cell culture, nonhuman, Assay Type: Micronucleus test in vitro, chromosome aberrations, Assay Code: MN&+, Evaluation Type: Evaluation A (Pre-1980)) was “active; positive”.
In the case of `c1ccc2c3c4c(ccc5cccc(c54)[C@H]4O[C@@H]34)cc2c1`, the mutagenic call is “active; positive” under setting [8] and “active; positive” under setting [3]. The call (Species/Cell Type: Nonhuman, Assay Code: CCGT, Evaluation Type: Evaluation A (Pre-1980)) is “no conclusion”.
Take `NC(=S=O)c1ccccc1`: the mutagenic call (Species/Cell Type: Mammalian polychromatic erythrocytes, Assay Type: Micronucleus test, chromosome aberrations, Assay Code: MNT+U, Dose Response: Unconfirmed positive response, Evaluation Type: Evaluation B (Post-1980)) is “active; positive”.
Turning to `COc1cc([N+](=O)[O-])ccc1N=Nc1ccccc1`, the mutagenic call under setting [2] was “no conclusion”.
